Measurements as given in patent US20100137388A1, “Therapeutic Pro-Antibiotic Agents and Methods of Use Thereof” (priority 2007, published 2010).
In brackets after ≈: the same amount, converted by molar mass.

Assays:
E. coli LpxA = E. coli LpxA (Escherichia coli, UniProt P0A722); assay: LpxA enzyme inhibition (TLC of radiolabeled UDP-GlcNAc acylation); format: biochemical; settings: percentage of control, lower is better; for remaining activity at 500 µM (stock) / % LpxA activity (500 μM): test compound dilution 500 μM; for remaining activity at 5000 µM (stock) / % LpxA activity (5 mM): test compound dilution 5 mM
Chain of E. coli LpxA (P0A722 whole entry): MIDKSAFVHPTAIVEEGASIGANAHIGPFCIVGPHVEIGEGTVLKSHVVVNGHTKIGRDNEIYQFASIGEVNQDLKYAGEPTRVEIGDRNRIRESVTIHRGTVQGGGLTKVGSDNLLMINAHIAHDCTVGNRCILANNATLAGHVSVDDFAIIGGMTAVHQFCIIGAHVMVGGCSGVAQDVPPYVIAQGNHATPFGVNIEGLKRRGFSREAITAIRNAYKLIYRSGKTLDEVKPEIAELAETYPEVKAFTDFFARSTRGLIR
Experimental: Measurement of LpxA activity was based on increased mobility of radiolabeled UDP-N-acetyl-D-glucosamine on thin layer chromatography (TLC) plates upon acylation. One μl of test compound of appropriate dilution in ethanol was mixed with 2.5 μM β-hydroxy-myristoyl-ACP and 0.5 μM E. coli LpxA in 1% bovine serum albumin and 40 mM Na-Hepes (pH 8.0) at room temperature (total volume 8 μl). The reaction was initiated by adding 2 μl of UDP-[^3H]N-acetyl-D-glucosamine and aliquots were removed at various time intervals and spotted directly on silica gel G plates.
The procedure as given above was followed, with the appropriate dilutions of test compound being 5 mM and 500 μM.

mice = settings: mouse, in vivo
[1] = test system: E. coli K12 wild type strain; assay: Antibiotic MIC, NCCLS M7-A6 broth microdilution; format: cell-based; settings: range tested 1 μM-2 mM
Experimental: (§1) Susceptibilities to the compounds were determined using the National Committee for Clinical Laboratory Standards (NCCLS) M7-A6 broth microdilution method. Cation-adjusted Mueller-Hinton broth (Ca^2+, 25 μg/mL; Mg^2+, 12.5 μg/mL) microdilution panels were prepared to contain antimicrobial doubling dilution concentrations of an appropriate range. DMSO (dimethylsulfoxide) controls were incorporated into the panel to mimic the quantity of DMSO used in dissolving some of the compounds at the higher concentrations. Each final panel well volume was 100 μL with a bacterial inoculum of 5×10^5 CFU (colony forming units)/mL. Panels were read following 16 to 20 h of incubation at 35 degrees Celsius in ambient air. The MIC (minimum inhibitory concentration) was defined as the lowest concentration of antimicrobial inhibiting visible growth.
(§2) Procedure followed was as described above, with the appropriate range being 1 μM-2 mM and using the E. coli D22 mutant strain and the E. coli K12 wild type strain. Value recorded was the lowest concentration of compound needed to produce the bactericidal or bacteriostatic effect (lower is better): […]

[2] = test system: E. coli D22 mutant strain; assay: Antibiotic MIC, NCCLS M7-A6 broth microdilution; format: cell-based; settings: range tested 1 μM-2 mM
Experimental: as §1, §2

[3] = test system: E. coli K12 wild type strain; assay: Pro-antibiotic MIC of antibiotic agents alone and with DNM0195; format: cell-based; settings: antibiotic agent alone
Experimental: as §1, with “DMSO (dimethylsulfoxide) controls were incorporated into the panel to mimic the quantity of DMSO used in dissolving some of the compounds at the higher concentrations.” left out
Following Example 24, MICs of various antibiotic agents were determined against the E. coli K12 wild type strain, using the same procedure with the appropriate range for each antibiotic. For erythromycin, gentamicin, and kanamycin, this range was 0.24 μg/mL-500 μg/mL. Parallel to this effort, solutions were prepared which were identical. To each of these were added 0.5 μL of DNM0195 stock solution and mixed to produce a final concentration of 500 μM for determination of pro-antibiotic activity.

[4] = Escherichia coli, read-out: MIC

Compound	remaining activity at 500 µM (stock) (E. coli LpxA) [%]	remaining activity at 5000 µM (stock) (E. coli LpxA) [%]	also measured
COC(=O)/C=C/c1cc(-c2nnn(C)n2)c(Cc2ccccc2)s1 [DNM0226, (E)-methyl 3-(5-benzyl-4-(2-methyl-2H-tetrazol-5-yl)thiophen-2-yl)acrylate]	97	93	
COC(=O)/C=C/c1sc(-c2ccc(-c3ccccc3)cc2)cc1-c1nnn[nH]1 [DNM0240, (E)-methyl 3-(5-(4-biphenyl)-3-(1H-tetrazol-5-yl)thiophen-2-yl)acrylate]			% LpxA activity (500 μM) (E. coli LpxA): 90.7%; % LpxA activity (5 mM) (E. coli LpxA): 6.6%
O=C(O)/C=C/c1cc(-c2nnn[nH]2)c(-c2cccc3ccccc23)s1 [DNM0235, (E)-3-(5-(naphthalen-1-yl)-4-(1H-tetrazol-5-yl)thiophen-2-yl)acrylic acid]	59.6	7.3	
COC(=O)/C=C/c1sc(Cc2ccccc2)cc1-c1nnn[nH]1 [DNM0243, (E)-methyl 3-(5-benzyl-3-(1H-tetrazol-5-yl)thiophen-2-yl)acrylate]	69.2	0.9	
O=C(O)C(=Cc1cc(-c2nnn[nH]2)c(Cc2ccccc2)s1)C(=O)O [DNM0264, 2-((5-benzyl-4-(1H-tetrazol-5-yl)thiophen-2-yl)methylene)malonic acid]	56.8	5.4	
COC(=O)/C=C/c1cc(-c2nnnn2C)c(Cc2ccccc2)s1 [DNM0227, (E)-methyl 3-(5-benzyl-4-(1-methyl-1H-tetrazol-5-yl)thiophen-2-yl)acrylate]	92.1	86.6	
Cn1nnnc1-c1cc(-c2ccc(F)cc2)sc1/C=C/C(=O)O [DNM0233, (E)-3-(5-(4-fluorophenyl)-3-(1-methyl-1H-tetrazol-5-yl)thiophen-2-yl)acrylic acid]	98.8	47.3	
Cn1nnc(-c2cc(/C=C/C(=O)O)sc2Cc2ccccc2)n1 [DNM0197, (E)-3-(5-benzyl-4-(2-methyl-2H-tetrazol-5-yl)thiophen-2-yl)acrylic acid]	62.4	20.2	
COC(=O)/C=C/c1cc(-c2nnn[nH]2)c(-c2cccc3ccccc23)s1 [DNM0234, (E)-methyl 3-(5-(naphthalen-1-yl)-4-(1H-tetrazol-5-yl)thiophen-2-yl)acrylate]	92.1	1.1	
O=C(O)/C=C/c1cc(-c2nnn[nH]2)c(Cc2ccccc2)s1 [DNM0195, (Z) and (E)-3-(5-benzyl-4-(1H-tetrazol-5-yl)thiophen-2-yl)acrylic acid]			% LpxA activity (500 μM) (E. coli LpxA): 7.6%; % LpxA activity (5 mM) (E. coli LpxA): 3.1%; Liver biopsies (mice): normal; MIC [1]: 1000 to 2000 µM; MIC [2]: 1000 µM (≈ 312 µg/mL)
O=C(O)/C=C/c1cc(-c2nnn[nH]2)c(-c2ccc(F)cc2)s1 [DNM0224, (E)-3-(5-(4-fluorophenyl)-4-(1H-tetrazol-5-yl)thiophen-2-yl)acrylic acid]	88.7	37.9	
COC(=O)/C=C/c1cc(-c2nnn[nH]2)c(Cc2ccccc2)s1 [DNM0194, (Z) and (E)-methyl 3-(5-benzyl-4-(1H-tetrazol-5-yl)thiophen-2-yl)acrylate]			% LpxA activity (500 μM) (E. coli LpxA): 36.0%; % LpxA activity (5 mM) (E. coli LpxA): 1.4%; MIC [2]: 1000 to 2000 µM
O=C(O)/C=C/c1cc(-c2nnn[nH]2)c(-c2ccc(-c3ccccc3)cc2)s1 [DNM0225, (E)-3-(5-(4-biphenylyl)-4-(1H-tetrazol-5-yl)thiophen-2-yl)acrylic acid]	84.9	7.3	
NC[C@H]1O[C@H](O[C@H]2[C@H](O)[C@@H](O[C@H]3O[C@H](CO)[C@@H](O)[C@H](N)[C@H]3O)[C@H](N)C[C@@H]2N)[C@H](O)[C@@H](O)[C@@H]1O [Kanamycin]			MIC [3, 4]: 3.12 µg/mL
COC(=O)/C=C/c1sc(-c2ccc(F)cc2)cc1-c1nnn[nH]1 [DNM0229, (E)-methyl 3-(5-(4-fluorophenyl)-3-(1H-tetrazol-5-yl)thiophen-2-yl)acrylate]	57.8	4	
O=C(O)/C=C/c1cccc(Cc2sc(/C=C/C(=O)O)cc2-c2nnn[nH]2)c1 [DNM0270, (E)-3-(3-((5-((E)-2-carboxyvinyl)-3-(1H-tetrazol-5-yl)thiophen-2-yl)methyl)phenyl)acrylic acid]	89.7	3	
O=C(O)/C=C/c1sc(-c2ccc(-c3ccccc3)cc2)cc1-c1nnn[nH]1 [DNM0245, (E)-3-(5-(biphenyl-4-yl)-3-(1H-tetrazol-5-yl)thiophen-2-yl)acrylic acid]	78.5	4.4	
Cn1nnnc1-c1cc(/C=C/C(=O)O)sc1Cc1ccccc1 [DNM0196, (E)-3-(5-benzyl-4-(1-methyl-1H-tetrazol-5-yl)thiophen-2-yl)acrylic acid]	43.9	5.8	
O=C1NC(=O)C(=Cc2sc(Cc3ccccc3)cc2-c2nnn[nH]2)S1 [DNM0246, 5-((5-benzyl-3-(1H-tetrazol-5-yl)thiophen-2-yl)methylene)thiazolidine-2,4-dione]	165	10.3	
O=C(O)/C=C/c1cc(-c2nnn(CCC(=O)O)n2)c(Cc2ccccc2)s1 [DNM0252, (E)-3-(5-benzyl-4-(2-(2-carboxyethyl)-2H-tetrazol-5-yl)thiophen-2-yl)acrylic acid]	62.9	5.1	
CC[C@H]1OC(=O)[C@H](C)[C@@H](O[C@H]2C[C@@](C)(OC)[C@@H](O)[C@H](C)O2)[C@H](C)[C@@H](O[C@@H]2O[C@H](C)C[C@H](N(C)C)[C@H]2O)[C@](C)(O)C[C@@H](C)C(=O)[C@H](C)[C@@H](O)[C@]1(C)O [Erythromycin]			MIC [3, 4]: 62.5 µg/mL
Gentamicin			MIC [3]: 0.39 µg/mL
